Experiments:
Assay in all cases: combination Emax (second highest fraction inhibited in the dose matrix, 72 h); higher = more inhibition; extreme values may be limits of the assay
[1] = test system: G-292-Clone-A141B1 (Osteosarcoma)
Procedure, shortened: (§1)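 Bliss excess equals the observed combination effect minus the expected value EA + EB − EA·EB, where EA and EB are the effects of each agent alone. Combination Emax is the second-highest inhibition within the matrix. Inhibition was scaled from CellTiter-Glo 2.0 luminescence, with 0 set by vehicle wells and 1 by blank wells, after 72 hours of two-drug dosing of cells plated in 1536-well plates.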

[2] = test system: SW780 (Bladder Carcinoma)
Procedure, shortened: as §1

[3] = test system: SW756 (Cervical Carcinoma)
Procedure, shortened: as §1

[4] = test system: DB (B-Cell Non-Hodgkin's Lymphoma)
Procedure, shortened: as §1

CAL-78 (Chondrosarcoma) = test system: CAL-78 (Chondrosarcoma)
Procedure, shortened: as §1

[5] = test system: CTV-1 (T-Lymphoblastic Leukemia)
Procedure, shortened: as §1

[6] = test system: NCI-H1793 (Lung Adenocarcinoma)
Procedure, shortened: as §1

NCI-H2369 (Mesothelioma) = test system: NCI-H2369 (Mesothelioma)
Procedure, shortened: as §1

[7] = test system: SW1783 (Low Grade Glioma)
Procedure, shortened: as §1

[8] = test system: MDA-MB-157 (Breast Carcinoma)
Procedure, shortened: as §1

[9] = test system: HPAC (Pancreatic Carcinoma)
Procedure, shortened: as §1

NCI-H2595 (Mesothelioma) = test system: NCI-H2595 (Mesothelioma)
Procedure, shortened: as §1

[10] = test system: LS-513 (Colorectal Carcinoma)
Procedure, shortened: as §1

[11] = test system: KM-H2 (Hodgkin's Lymphoma)
Procedure, shortened: as §1

[12] = test system: HT-29 (Colorectal Carcinoma)
Procedure, shortened: as §1

IGR-1 (Melanoma) = test system: IGR-1 (Melanoma)
Procedure, shortened: as §1

[13] = test system: COR-L95 (Small Cell Lung Carcinoma)
Procedure, shortened: as §1

[14] = test system: DOV13 (Ovarian Carcinoma)
Procedure, shortened: as §1

[15] = test system: SNU-C5 (Colorectal Carcinoma)
Procedure, shortened: as §1

[16] = test system: KATOIII (Gastric Carcinoma)
Procedure, shortened: as §1

combination Emax [11]	Structure (SMILES)	combination Emax [1]	combination Emax [2]	combination Emax [3]	combination Emax [4]	combination Emax (CAL-78 (Chondrosarcoma))	combination Emax [5]	combination Emax [6]	combination Emax (NCI-H2369 (Mesothelioma))	combination Emax [7]	combination Emax [8]	combination Emax [9]	combination Emax (NCI-H2595 (Mesothelioma))	combination Emax [10]	combination Emax [12]	combination Emax (IGR-1 (Melanoma))	combination Emax [13]	combination Emax [14]	combination Emax [15]	combination Emax [16]
0.158	Cc1cc2ncnn2cc1Nc1ncc2c(n1)n(C1CCOCC1)c(=O)n2C [AZD7648] + CN(C)CCCOc1ccc(-c2ccc3ncc4c(c3c2)n(C2CCOCC2)c(=O)n4C)cn1 [AZD0156] (first compound max 10 µM, 7x7, partner max 1 µM)	0.341	0.18	0.205	0.551	0.173	0.262	0.333	0.198	0.277	0.209	0.169	0.208	0.247	0.247	0.0864	0.233	0.325	0.337	0.291
0.879	CC1(C)CCC(CN2CCN(c3ccc(C(=O)NS(=O)(=O)c4ccc(NCC5CCOCC5)c([N+](=O)[O-])c4)c(Oc4cnc5[nH]ccc5c4)c3)CC2)=C(c2ccc(Cl)cc2)C1 [Venetoclax] + C[C@@H]1COCCN1C2=NC(=NC(=C2)C3(CC3)[S@](=N)(=O)C)C4=C5C=CNC5=NC=C4 [AZD6738] (first compound max 1 µM, 7x7, partner max 10 µM)	0.344	0.22	0.325	0.983	0.605	0.924	0.508	0.233	0.503	0.886	0.611	0.249	0.677	0.865	0.675	0.838	0.91	0.784	0.462
0.139	CC1(C)CCC(CN2CCN(c3ccc(C(=O)NS(=O)(=O)c4ccc(NCC5CCOCC5)c([N+](=O)[O-])c4)c(Oc4cnc5[nH]ccc5c4)c3)CC2)=C(c2ccc(Cl)cc2)C1 [Venetoclax] + C[C@@H](Nc1cc(F)cc(F)c1)c1cc(C(=O)N(C)C)cc2c(=O)cc(N3CCOCC3)oc12 [AZD8186] (first compound max 1 µM, 7x7, partner max 3 µM)	0.296	0.163	0.117	0.943	0.212	0.372	0.221	0.107	0.336	0.546	0.211	0.163	0.491	0.132	0.0327	0.782	0.306	0.166	0.142
0.168	Cn1cnc2c(F)c(Nc3ccc(Br)cc3Cl)c(C(=O)NOCCO)cc21 [Selumetinib] + CCN(CCO)CCCOc1ccc2c(Nc3cc(CC(=O)Nc4cccc(F)c4)[nH]n3)ncnc2c1 [AZD2811] (first compound max 10 µM, 7x7, partner max 1 µM)	0.102	0.435	0.294	0.411	0.267	0.291	0.203	0.203	0.0665	0.215	0.906	0.169	0.85	0.715	0.393	0.21	0.4	0.436	0.429
0.19	COc1cc2ncnc(Nc3ccc(F)c(Cl)c3)c2cc1OCCCN1CCOCC1 [Gefitinib] + CC(C)n1c(=O)n(C)c2cnc3cc(F)c(-c4ccc(OCCCN5CCCCC5)nc4)cc3c21 [AZD1390] (first compound max 10 µM, 7x7, partner max 0.3 µM)	0.0339	0.14	0.1	0.328	0.194	0.785	0.143	0.0747	0.0328	0.125	0.222	0.129	0.354	0.315	0.635	0.261	0.168	0.0876	0.353
0.153	Cn1cnc2c(F)c(Nc3ccc(Br)cc3Cl)c(C(=O)NOCCO)cc21 [Selumetinib] + CC(C)n1c(=O)n(C)c2cnc3cc(F)c(-c4ccc(OCCCN5CCCCC5)nc4)cc3c21 [AZD1390] (first compound max 10 µM, 7x7, partner max 0.3 µM)	0.0339	0.381	0.229	0.304	0.136	0.331	0.218	0.129	0.0665	0.131	0.678	0.191	0.858	0.709	0.296	0.18	0.124	0.351	0.475
0.362	NC1(C(=O)N[C@@H](CCO)c2ccc(Cl)cc2)CCN(c2ncnc3[nH]ccc23)CC1 [Capivasertib] + CCN(CCO)CCCOc1ccc2c(Nc3cc(CC(=O)Nc4cccc(F)c4)[nH]n3)ncnc2c1 [AZD2811] (first compound max 10 µM, 7x7, partner max 1 µM)	0.245	0.28	0.287	0.635	0.512	0.636	0.289	0.231	0.469	0.276	0.395	0.261	0.532	0.427	0.465	0.172	0.544	0.501	0.295

The next lines start with the compound.

Structure (SMILES)	combination Emax [11]	combination Emax [1]	combination Emax [2]	combination Emax [3]	combination Emax [4]	combination Emax (CAL-78 (Chondrosarcoma))	combination Emax [5]	combination Emax [6]	combination Emax (NCI-H2369 (Mesothelioma))	combination Emax [7]	combination Emax [8]	combination Emax [9]	combination Emax (NCI-H2595 (Mesothelioma))	combination Emax [10]	combination Emax [12]	combination Emax (IGR-1 (Melanoma))	combination Emax [13]	combination Emax [14]	combination Emax [15]	combination Emax [16]
CC(=O)Nc1cccc(-n2c(=O)n(C3CC3)c(=O)c3c(Nc4ccc(I)cc4F)n(C)c(=O)c(C)c32)c1 [Trametinib] + Cc1nc(-c2cn3c(n2)-c2ccc(-c4cnn(C(C)(C)C(N)=O)c4)cc2OCC3)n(C(C)C)n1 [Taselisib] (first compound max 1 µM, 7x7, partner max 10 µM)	0.227	0.921	0.541	0.626	0.212	0.512	0.96	0.778	0.294	0.7	0.336	1	0.404	1	0.981	0.759	0.439	0.76	0.794	0.793
C[C@@H]1COCCN1c1cc(C2([S@](C)(=N)=O)CC2)nc(-c2ccnc3[nH]ccc23)n1 [AZD6738] + O=C(c1cc(Cc2n[nH]c(=O)c3ccccc23)ccc1F)N1CCN(C(=O)C2CC2)CC1 [Olaparib] (first compound max 10 µM, 7x7, partner max 10 µM)	0.785	0.283	0.181	0.228	0.736	0.616	0.916	0.379	0.133	0.407	0.85	0.416	0.214	0.722	0.799	0.452	0.517	0.915	0.696	0.341
CC1(C)CCC(CN2CCN(c3ccc(C(=O)NS(=O)(=O)c4ccc(NCC5CCOCC5)c([N+](=O)[O-])c4)c(Oc4cnc5[nH]ccc5c4)c3)CC2)=C(c2ccc(Cl)cc2)C1 [Venetoclax] + COc1cc(Nc2ncc3c(n2)-c2ccc(Cl)cc2C(c2c(F)cccc2OC)=NC3)ccc1C(=O)O [Alisertib] (first compound max 1 µM, 7x7, partner max 10 µM)	0.448	0.484	0.534	0.273	0.949	0.598	0.976	0.612	0.327	0.634	0.649	0.688	0.211	0.55	0.418	0.403	0.705	0.693	0.347	0.681
CS(=O)(=O)CCNCc1ccc(-c2ccc3ncnc(Nc4ccc(OCc5cccc(F)c5)c(Cl)c4)c3c2)o1 [Lapatinib] + C[C@@H](Oc1cc(-c2cnn(C3CCNCC3)c2)cnc1N)c1c(Cl)ccc(F)c1Cl [Crizotinib] (first compound max 10 µM, 7x7, partner max 10 µM)	0.931	0.71	0.489	0.313	0.953	0.897	1	0.793	0.254	0.248	0.493	0.929	0.458	0.966	0.942	0.987	0.812	0.886	0.764	0.627
CCN(CCO)CCCOc1ccc2c(Nc3cc(CC(=O)Nc4cccc(F)c4)[nH]n3)ncnc2c1 [AZD2811] + O=C(c1cc(Cc2n[nH]c(=O)c3ccccc23)ccc1F)N1CCN(C(=O)C2CC2)CC1 [Olaparib] (first compound max 1 µM, 7x7, partner max 10 µM)	0.384	0.304	0.242	0.0979	0.604	0.416	0.375	0.0897	0.216	0.201	0.251	0.21	0.226	0.404	0.182	0.168	0.436	0.483	0.161	0.12
COc1cc2c(cc1OCCCCCOc1cc3c(cc1OC)C(=O)N1C=C(C)C[C@H]1C=N3)N=C[C@@H]1CC(C)=CN1C2=O [SG3199] + O=C(c1cc(Cc2n[nH]c(=O)c3ccccc23)ccc1F)N1CCN(C(=O)C2CC2)CC1 [Olaparib] (first compound max 0.001 µM, 7x7, partner max 10 µM)	0.264	0.145	0.128	0.149	0.347	0.268	0.127	0.138	0.0848	0.0897	0.0754	0.0597	0.0944	0.155	0.0781	0.187	0.431	0.249	0.147	0.0764

Reference: the supplement of paper PMC11061612
